# Laboratory results as given in patent US12121522B2, “Methods of treating cancer with an mTOR inhibitor” (Revolution Medicines, Inc., priority 2022, dated 2024).
# Several values for one entry are separate records, joined by “and”; a condition that tells them apart may be missing. Identical values can stand only once.
# How the values were obtained:
# [1] = test system: 4EBP3 mRNA expression; test: 4EBP3 mRNA expression in whole blood; format: in vivo, human; details: cohorts treated with at least 3.0 mg; sustained over a 6-hour period
# Description: Whole blood was collected from all subjects in dose escalation at CID1 prior to dosing, and 6 timepoints after EOI. In each sample, 4EBP3 mRNA expression was quantified as a pharmacodynamic indicator of mTORC1 inhibition.
# [2] = test system: HCC-1954 PIK3CA^H1047R breast cancer CDX; test: HCC-1954 breast cancer xenograft; format: in vivo, mouse; details: two values
# Description: (§1) The antitumor activity of RMC-5552 as a single agent against tumors predicted to be dependent on the mTOR pathway and/or bearing specific PI3K/mTOR pathway-activating mutations (i.e., PIK3CA^mut, phosphatase and tensin homolog [PTEN^LOF], or co-mutation of both and tuberous sclerosis complex [TSC^LOF]) was evaluated in selected CDX and/or PDX models
# (§2) Table 1. RMC-5552 was administered IP once weekly at 1, 3, 10, and 30 mg/kg. In the breast cancer MCF7 PIK3CA^[…] model, a higher dose of 50 mg/kg once weekly and an alternate dose regimen of 30 mg/kg every 10 days were also evaluated.
# [3] = Clinical plasma PK, study RMC-5552-001; format: in vivo, human
# Description: The plasma PK of RMC-5552 in subjects was characterized after single- and repeat-dose administration via IV infusion. […] Sparse PK samples were collected on other visit days as indicated in the clinical study protocol, including End of Infusion (EOI) samples on Cycle 1 Day 8 (C1D8), Cycle 2 Day 1 (C2D1), Cycle 3 Day 1 (C3D1), and Cycle 4 Day 1 ([…]) to approximate maximum concentration (Cmax). The plasma PK of RMC-5552 in subjects was characterized after single- and repeat dose administration via intravenous (IV) infusion. […] Sparse PK samples were collected on other visit days as indicated in the clinical study protocol, including EOI samples on C1D8, C2D1, C3D1, and […] to approximate Cmax. […] AUC0-last value was not calculated on C1D8, C2D1, C3D1, or […] due to limited PK time points (pre-dose and EOI).
# [4] = test system: ctDNA (mean VAF); test: ctDNA molecular response (Guardant Health algorithm); format: in vivo, human
# Description: The mean±SEM of fractional change in mean VAF from C1D1 to C3D1 was determined by the Guardant Health Molecular Response Algorithm. […] Change in ctDNA is presented as mean±SEM of % change in mean VAF from C1D1 to C3D1. […] The results presented in FIGS. 8 and 9, supported by preclinical data, indicate that the dose range of 6 mg to 12 mg represents a “steep” dose-exposure-response relationship.
# [5] = test system: BLC1521 TSC1 protein-negative bladder cancer; test: BLC1521 bladder cancer xenograft; format: in vivo, mouse
# Description: as §1, §2
smiles,measurement,setting,value
CO[C@H]1C[C@@H]2CC[C@@H](C)[C@@](O)(O2)C(=O)C(=O)N2CCCC[C@H]2C(=O)O[C@H]([C@H](C)C[C@@H]2CC[C@@H](OC(=O)NCCOCCOCCOCCOCCOCCOCCOCCOCCC(=O)N3CCc4cc(Cn5nc(-c6ccc7oc(N)nc7c6)c6c(N)ncnc65)ccc4C3)[C@H](OC)C2)C[C@@H](O)[C@H](C)/C=C(\C)[C@@H](O)[C@@H](OC)C(=O)[C@H](C)C[C@H](C)/C=C/C=C/C=C/1C [RMC-5552],4EBP3 mRNA expression in whole blood,[1],increased from baseline
same,TGI,[2]; 1 mg/kg IP QW,79% and 81%
same,TGI,[2]; 3 mg/kg IP QW,94% and 96%
same,TGI,[2]; 10 mg/kg IP QW,95% and 92%
same,Mean Accumulation Ratio (AUC0-last on D15/D1),[3]; 1.6 mg,2.4
same,Cmax,"[3]; 1.6 mg 1-h IV inf, C1D1",21.6 nM
same,Mean AUC0-last,"[3]; 1.6 mg, C1D1",0.0297 µM·h
same,Mean Dose Normalized AUC0-last,"[3]; 1.6 mg, C1D1",18.6 nM·h/mg
same,Mean Unbound AUC0-last,"[3]; 1.6 mg, C1D1",0.0017 µM·h
same,Mean Unbound Cmax,"[3]; 1.6 mg, C1D1",1.2 nM
same,Cmax,"[3]; 1.6 mg, C1D15",35.3 nM
same,Mean AUC0-last,"[3]; 1.6 mg, C1D15",0.0555 µM·h
same,Mean Dose Normalized AUC0-last,"[3]; 1.6 mg, C1D15",34.7 nM·h/mg
same,Mean Unbound AUC0-last,"[3]; 1.6 mg, C1D15",0.0032 µM·h
same,Mean Unbound Cmax,"[3]; 1.6 mg, C1D15",2.0 nM
same,Cmax,"[3]; 1.6 mg, C2D1 (EOI)",24.7 nM
same,Mean Unbound Cmax,"[3]; 1.6 mg, C2D1 (EOI)",1.4 nM
same,Mean Accumulation Ratio (AUC0-last on D15/D1),[3]; 3 mg,2.1
same,Cmax,"[3]; 3 mg 1-h IV inf, C1D1",32 nM
same,Mean AUC0-last,"[3]; 3 mg, C1D1",0.0439 µM·h
same,Mean Dose Normalized AUC0-last,"[3]; 3 mg, C1D1",14.6 nM·h/mg
same,Mean Unbound AUC0-last,"[3]; 3 mg, C1D1",0.0025 µM·h
same,Mean Unbound Cmax,"[3]; 3 mg, C1D1",1.8 nM
same,Cmax,"[3]; 3 mg, C1D15",67.5 nM
same,Mean AUC0-last,"[3]; 3 mg, C1D15",0.0875 µM·h
same,Mean Dose Normalized AUC0-last,"[3]; 3 mg, C1D15",29.2 nM·h/mg
same,Mean Unbound AUC0-last,"[3]; 3 mg, C1D15",0.005 µM·h
same,Mean Unbound Cmax,"[3]; 3 mg, C1D15",3.8 nM
same,Cmax,"[3]; 3 mg, C2D1 (EOI)",74.2 nM
same,Mean Unbound Cmax,"[3]; 3 mg, C2D1 (EOI)",4.2 nM
same,Mean Accumulation Ratio (AUC0-last on D15/D1),[3]; 6 mg,1.6
same,Cmax,"[3]; 6 mg 1-h IV inf, C1D1",101 nM
same,Mean AUC0-last,"[3]; 6 mg, C1D1",0.137 µM·h
same,Mean Dose Normalized AUC0-last,"[3]; 6 mg, C1D1",22.1 nM·h/mg
same,Mean Unbound AUC0-last,"[3]; 6 mg, C1D1",0.0078 µM·h
same,Mean Unbound Cmax,"[3]; 6 mg, C1D1",5.8 nM
same,Mean t1/2,"[3]; 6 mg, C1D1",8.1 h
same,Unbound AUC0-last (Table 3),"[3]; 6 mg, C1D1",0.0078 µM·h
same,Unbound Cmax (Table 3),"[3]; 6 mg, C1D1",5.6 nM
same,Cmax,"[3]; 6 mg, C1D8 (EOI)",150 nM
same,Mean Unbound Cmax,"[3]; 6 mg, C1D8 (EOI)",8.5 nM
same,Cmax,"[3]; 6 mg, C1D15",155 nM
same,Mean AUC0-last,"[3]; 6 mg, C1D15",0.219 µM·h
same,Mean Dose Normalized AUC0-last,"[3]; 6 mg, C1D15",36.6 nM·h/mg
same,Mean Unbound AUC0-last,"[3]; 6 mg, C1D15",0.0125 µM·h
same,Mean Unbound Cmax,"[3]; 6 mg, C1D15",8.9 nM
same,Mean t1/2,"[3]; 6 mg, C1D15",8.2 h
same,Unbound AUC0-last (Table 3),"[3]; 6 mg, C1D15",0.0121 µM·h
same,Unbound Cmax (Table 3),"[3]; 6 mg, C1D15",8.7 nM
same,Cmax,"[3]; 6 mg, C2D1 (EOI)",159 nM
same,Mean Unbound Cmax,"[3]; 6 mg, C2D1 (EOI)",9.1 nM
same,Cmax,"[3]; 6 mg, C3D1 (EOI)",187 nM
same,Mean Unbound Cmax,"[3]; 6 mg, C3D1 (EOI)",10.7 nM
same,Cmax,"[3]; 6 mg, C4D1 (EOI)",220 nM
same,Mean Unbound Cmax,"[3]; 6 mg, C4D1 (EOI)",12.5 nM
same,Mean Accumulation Ratio (AUC0-last on D15/D1),[3]; 8 mg,2.6
same,Cmax,"[3]; 8 mg 1-h IV inf, C1D1",152 nM
same,Mean AUC0-last,"[3]; 8 mg, C1D1",0.219 µM·h
same,Mean Dose Normalized AUC0-last,"[3]; 8 mg, C1D1",27.4 nM·h/mg
same,Mean Unbound AUC0-last,"[3]; 8 mg, C1D1",0.0125 µM·h
same,Mean Unbound Cmax,"[3]; 8 mg, C1D1",8.6 nM
same,Mean t1/2,"[3]; 8 mg, C1D1",11.4 h
same,Unbound AUC0-last (Table 3),"[3]; 8 mg, C1D1",0.0117 µM·h
same,Unbound Cmax (Table 3),"[3]; 8 mg, C1D1",8.6 nM
same,Cmax,"[3]; 8 mg, C1D8 (EOI)",242 nM
same,Mean Unbound Cmax,"[3]; 8 mg, C1D8 (EOI)",13.8 nM
same,Cmax,"[3]; 8 mg, C1D15",340 nM
same,Mean AUC0-last,"[3]; 8 mg, C1D15",0.466 µM·h
same,Mean Dose Normalized AUC0-last,"[3]; 8 mg, C1D15",58.3 nM·h/mg
same,Mean Unbound AUC0-last,"[3]; 8 mg, C1D15",0.0266 µM·h
same,Mean Unbound Cmax,"[3]; 8 mg, C1D15",19.4 nM
same,Mean t1/2,"[3]; 8 mg, C1D15",10.6 h
same,Unbound AUC0-last (Table 3),"[3]; 8 mg, C1D15",0.0266 µM·h
same,Unbound Cmax (Table 3),"[3]; 8 mg, C1D15",20.1 nM
same,Cmax,"[3]; 8 mg, C2D1 (EOI)",282 nM
same,Mean Unbound Cmax,"[3]; 8 mg, C2D1 (EOI)",16.1 nM
same,Cmax,"[3]; 8 mg, C3D1 (EOI)",295 nM
same,Mean Unbound Cmax,"[3]; 8 mg, C3D1 (EOI)",16.8 nM
same,Cmax,"[3]; 8 mg, C4D1 (EOI)",208 nM
same,Mean Unbound Cmax,"[3]; 8 mg, C4D1 (EOI)",11.8 nM
same,Cmax,"[3]; 10 mg 2-h IV inf, C1D1",115 nM
same,Mean Accumulation Ratio (AUC0-last on D15/D1),[3]; 10 mg 2-h inf,1.7
same,Mean AUC0-last,"[3]; 10 mg 2-h inf, C1D1",0.366 µM·h
same,Mean Dose Normalized AUC0-last,"[3]; 10 mg 2-h inf, C1D1",36.6 nM·h/mg
same,Mean Unbound AUC0-last,"[3]; 10 mg 2-h inf, C1D1",0.0209 µM·h
same,Mean Unbound Cmax,"[3]; 10 mg 2-h inf, C1D1",6.6 nM
same,Mean t1/2,"[3]; 10 mg 2-h inf, C1D1",13.5 h
same,Cmax,"[3]; 10 mg 2-h inf, C1D15",181 nM
same,Mean AUC0-last,"[3]; 10 mg 2-h inf, C1D15",0.527 µM·h
same,Mean Dose Normalized AUC0-last,"[3]; 10 mg 2-h inf, C1D15",52.7 nM·h/mg
same,Mean Unbound AUC0-last,"[3]; 10 mg 2-h inf, C1D15",0.03 µM·h
same,Mean Unbound Cmax,"[3]; 10 mg 2-h inf, C1D15",10.3 nM
same,Mean t1/2,"[3]; 10 mg 2-h inf, C1D15",4.2 h
same,Cmax,"[3]; 10 mg 2-h inf, C2D1",290 nM
same,Mean Unbound Cmax,"[3]; 10 mg 2-h inf, C2D1",16.5 nM
same,Unbound AUC0-last (Table 3),"[3]; 10 mg, C1D1, N=2",0.0142 µM·h
same,Unbound Cmax (Table 3),"[3]; 10 mg, C1D1, N=2",11 nM
same,Cmax,"[3]; 12 mg 1-h IV inf, C1D1",396 nM
same,Mean AUC0-last,"[3]; 12 mg, C1D1",0.49 µM·h
same,Mean Dose Normalized AUC0-last,"[3]; 12 mg, C1D1",40.9 nM·h/mg
same,Mean Unbound AUC0-last,"[3]; 12 mg, C1D1",0.028 µM·h
same,Mean Unbound Cmax,"[3]; 12 mg, C1D1",22.6 nM
same,Mean t1/2,"[3]; 12 mg, C1D1",8.3 h
same,Unbound AUC0-last (Table 3),"[3]; 12 mg, C1D1, N=2",0.0282 µM·h
same,Unbound Cmax (Table 3),"[3]; 12 mg, C1D1, N=2",22.6 nM
same,exposure (Cmax and AUC0-last) on C1D15 relative to C1D1,"[3]; weekly repeat dosing, 1.6 to 8 mg",about 2 fold
same,decrease in VAF,"[4]; 67F NSCLC STK11, TSC2, KRAS L19F, 8 mg QW",reduction in lesion; 31%
same,MR (molecular response),"[4]; endometrial PIK3CA, PTEN, TSC2, 8 mg QW",SD; MR 64%
same,subjects with molecular response,[4]; of 6 subjects with SD as best response and a pathogenic mTOR pathway variant,3
same,molecular response,[4]; one subject on 12 mg initial dose,effective molecular complete response
same,MR (molecular response),"[4]; uterine CaSarc TSC1 LOF, 10 mg single dose, 6 mg QW",91%
same,TGI,[5]; 3 mg/kg IP QW,94%
same,tumor regression,[5]; 10 mg/kg IP QW,45% regression
